The record followed here is BindingDB's records for patent US20250213705 (Bright Peak Therapeutics, 2025).

The structures appear in SMILES notation.

Assay [1] addresses T1, Glutamate carboxypeptidase 2 (Homo sapiens, UniProt Q04609). Put plainly: SPR Analysis. How it is done:
The interaction of PSMA-binding variants with human FOLH1 was measured with Surface Plasmon Resonance (SPR) technology. Biotinylated FOLH1 was captured at a concentration of 30 μg/mL onto a Streptavidin chip. […] After each cycle, needles were washed with 50% DMSO. To measure the association to the FOLH1 protein, the samples were injected with a flow rate of 30 μL/min for 90 s, followed by 1200 s buffer only to detect the dissociation. The used running buffer was 1×PBS with 0.05% Tween20 and 2% DMSO. The relative response units (RU, Y-axis) are plotted against time (s, X-axis) and analyzed in a kinetic 1:1 binding model. In a different setup, biotinylated FOLH1 was captured at a concentration of 0.8 μg/mL and the running buffer was 1×PBS with 0.05% Tween20.

Assay [2] addresses T1, Glutamate carboxypeptidase 2. Put plainly: Inhibition Assay. How it is done:
Prepare a working solution of 100 μM Amplex Red reagent containing 0.25 U/mL HRP, 0.08 U/mL L-glutamate oxidase, 0.5 U/mL 1-glutamate-pyruvate transaminase, 200 μM L-alanine and keep protected from light. […] Final concentration is 5 nM. Transfer 10 μl/well of the inhibitor solution previously prepared in a separate 96 wells/plate. […] Incubate the reactions for 30 min at 37° C., protected from light. Because the assay is continuous (not terminated), fluorescence may be measured at multiple time points to follow the kinetics of the reactions. Measure the fluorescence in a fluorescence microplate reader using excitation in the range of 530-560 nm and emission detection at ˜590 nm. Ec50s were determined with GraphPad Prism. Ki is calculated based on Cheng-Prusoff equation.

T1 sequence (Q04609 whole entry): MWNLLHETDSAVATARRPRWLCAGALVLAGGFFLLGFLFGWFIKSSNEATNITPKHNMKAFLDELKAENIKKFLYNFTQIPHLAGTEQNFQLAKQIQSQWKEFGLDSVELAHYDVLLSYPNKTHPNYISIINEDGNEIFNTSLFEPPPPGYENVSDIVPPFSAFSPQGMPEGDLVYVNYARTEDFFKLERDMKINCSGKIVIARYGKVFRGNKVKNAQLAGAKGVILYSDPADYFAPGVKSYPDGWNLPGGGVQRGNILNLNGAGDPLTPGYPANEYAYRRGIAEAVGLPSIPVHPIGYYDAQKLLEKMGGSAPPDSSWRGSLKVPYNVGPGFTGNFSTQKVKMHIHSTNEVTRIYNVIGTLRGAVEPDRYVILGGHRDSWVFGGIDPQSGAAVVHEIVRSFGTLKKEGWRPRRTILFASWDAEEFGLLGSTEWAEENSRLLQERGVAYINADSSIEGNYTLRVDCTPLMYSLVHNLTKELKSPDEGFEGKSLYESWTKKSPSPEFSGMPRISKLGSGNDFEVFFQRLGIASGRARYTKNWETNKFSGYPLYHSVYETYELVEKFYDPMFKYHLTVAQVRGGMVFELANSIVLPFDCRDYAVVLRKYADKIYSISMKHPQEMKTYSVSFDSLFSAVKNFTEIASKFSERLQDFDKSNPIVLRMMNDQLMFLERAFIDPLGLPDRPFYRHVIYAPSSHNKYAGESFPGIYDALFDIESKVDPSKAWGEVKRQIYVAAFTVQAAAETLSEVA

`CC(=O)NCCOCCOCCOCCC(=O)N[C@@H]1C[C@@H](C(=O)NCC(=O)N[C@@H](Cc2ccc3ccccc3c2)C(=O)NCCCC[C@H](NC(=O)N[C@@H](CCC(=O)O)C(=O)O)C(=O)O)N(C(=O)CCCOc2cc(C#N)cc(C#N)c2)C1` [US20250213705, Compound 92] gave a Kd in assay [1] of 1.01 nM. For the same compound, in assay [2], 79.7 nM corresponded to half-maximal inhibition (IC50) and the Ki is 0.57 nM.

In the case of `CC(=O)NCCOCCOCCOCCC(=O)NC[C@H]1CC[C@H](C(=O)N[C@@H](CCCCNC(=O)C(F)(F)F)C(=O)NCCCC[C@H](NC(=O)N[C@@H](CCC(=O)O)C(=O)O)C(=O)O)CC1` [US20250213705, Compound 54], in assay [2], inhibition was half-maximal at 89 nM (IC50) and the Ki worked out at 0.636 nM.

In assay [1], `CC(=O)NCCOCCOCCOCCC(=O)N[C@@H](Cc1cccc(C(=O)O)c1)C(=O)NCC(=O)N[C@@H](Cc1ccc2ccccc2c1)C(=O)NCCCC[C@H](NC(=O)N[C@@H](CCC(=O)O)C(=O)O)C(=O)O` [US20250213705, Compound 84] returned a Kd of 1.05 nM. The IC50 in assay [2] turned out to be 5.11 nM.

The compound `CC(=O)NCCOCCOCCOCCC(=O)N1C[C@H](NC(=O)CCCOc2cc(C#N)cc(C#N)c2)C[C@H]1C(=O)NCC(=O)N[C@@H](Cc1ccc2ccccc2c1)C(=O)NCCCC[C@H](NC(=O)N[C@@H](CCC(=O)O)C(=O)O)C(=O)O` [US20250213705, Compound 91] displayed a Kd in assay [1] of 3.6 nM. In assay [2], this compound gave an IC50 of 26.1 nM and a Ki of 0.187 nM.

Regarding `CC(=O)NCCCC[C@H](NC(=O)[C@H]1CC[C@H](CNC(=O)CCOCCOCCOCCNC(C)=O)CC1)C(=O)NCCCC[C@H](NC(=O)N[C@@H](CCC(=O)O)C(=O)O)C(=O)O` [US20250213705, Compound 83], in assay [2], the half-inhibitory concentration (IC50) was determined as 2.87 nM and affinity was put at a Ki of 0.021 nM.

In assay [2], `CC(=O)NCCOCCOCCOCCC(=O)NC[C@H]1CC[C@H](C(=O)N[C@@H](Cc2ccc3ccccc3c2)C(=O)NCCCC[C@H](NC(=O)N[C@@H](CS)C(=O)O)C(=O)O)CC1` [US20250213705, Compound 28] came in with an IC50 of 21300 nM and a Ki of 152 nM.

Turning to `CC(=O)NCCOCCOCCOCCC(=O)N[C@@H]1C[C@@H](C(=O)N[C@@H](Cc2ccc3ccccc3c2)C(=O)NCCCC[C@H](NC(=O)N[C@@H](CCC(=O)O)C(=O)O)C(=O)O)N(C(=O)COc2cc(C#N)cc(C#N)c2)C1` [US20250213705, Compound 81], the affinity in assay [1], expressed as Kd, was 4.12 nM. In assay [2], the IC50 is 10.7 nM and the affinity, expressed as Ki, was 0.076 nM.

In the case of `CC(=O)NCCOCCOCCOCCC(=O)NC[C@H]1CC[C@H](C(=O)N[C@@H](Cc2ccc3ccccc3c2)C(=O)NCCCC[C@H](NC(=O)N[C@@H](CC(=O)O)C(=O)O)C(=O)O)CC1` [US20250213705, Compound 23], the Kd in assay [1] is 120 nM. In assay [2], this compound showed an IC50 of 7010 nM and a Ki of 50.1 nM.

In assay [1], `CC(=O)NCCOCCOCCOCCC(=O)N[C@@H](Cc1ccc(C(=O)O)cc1)C(=O)NCC(=O)N[C@@H](Cc1ccc2ccccc2c1)C(=O)NCCCC[C@H](NC(=O)N[C@@H](CCC(=O)O)C(=O)O)C(=O)O` [US20250213705, Compound 94] returned a Kd of 2.33 nM. In assay [2], half-maximal inhibition (IC50) required 1.87 nM and the affinity corresponds to a Ki of 0.013 nM.

For `CC(=O)NCCOCCOCCOCCC(=O)N(CCCOc1cc(C(F)(F)F)cc(C(F)(F)F)c1)CC(=O)N[C@@H](Cc1ccc2ccccc2c1)C(=O)NCCCC[C@H](NC(=O)N[C@@H](CCC(=O)O)C(=O)O)C(=O)O` [US20250213705, Compound 86], binding in assay [1] was characterised by a dissociation constant (Kd) of 1.17 nM. In assay [2], the IC50 worked out at 59.2 nM and the affinity corresponds to a Ki of 0.423 nM.

For `CC(=O)NCCOCCOCCOCCC(=O)N(CCCOc1cc(C#N)cc(C#N)c1)CC(=O)N[C@@H](Cc1ccc2ccccc2c1)C(=O)NCCCC[C@H](NC(=O)N[C@@H](CCC(=O)O)C(=O)O)C(=O)O` [US20250213705, Compound 78], in assay [1], binding was put at a Kd of 0.43 nM. For the same compound, in assay [2], half-maximal inhibition (IC50) was put at 6.95 nM and the inhibition constant Ki is 0.05 nM.

In assay [1], `CC(=O)NCCOCCOCCOCCC(=O)N1C[C@H](NC(=O)CCCOc2cc(C#N)cc(C#N)c2)C[C@H]1C(=O)N[C@@H](Cc1ccc2ccccc2c1)C(=O)NCCCC[C@H](NC(=O)N[C@@H](CCC(=O)O)C(=O)O)C(=O)O` [US20250213705, Compound 80] displayed a Kd of 2.46 nM. In assay [2], this compound registered an IC50 of 2.35 nM and an inhibitory constant (Ki) of 0.017 nM.

Broadly, the Kd is the equilibrium constant for the complex coming apart. Read a high Kd as a looser complex. Broadly, the IC50 is the midpoint of a concentration-inhibition curve. The low end stands for greater potency, the high end for weaker potency. What is called Ki is the dissociation constant of the complex between target and ligand, obtained from inhibition or displacement. A higher Ki goes with a looser hold on the target.
